What was measured:
[1] = test system: purified human FH; experiment: Factor H (FH) binding to gonococci by flow cytometry; format: cell-based; conditions: F62 ΔlgtD grown with 20 μg/mL CMP-NulO, human FH 20 μg/mL
Procedure: FIG. 1: CMP-KDN serves as a substrate for gonococcal LOS and incorporation of KDN on gonococcal lacto-N-neotetraose LOS enhances factor H (FH) binding. A. Incorporation of KDN by gonococci. Gonococcal strain F62 ΔlgtD (expresses lacto-N-neotetraose (LNnT) from Hepl) was grown in media containing CMP-KDN (20 μg/mL) and binding of mAb 3F11 was measured by flow cytometry. mAb 3F11 binds only to […] LNnT; substitution of the terminal Gal of LNnT, for example with a NulO, will decrease mAb 3F11 binding. Approximately 5×10^7 bacteria were incubated with mAb 3F11 tissue culture supernatants for 15 minutes at 37° C. Binding of mAb 3F11 was disclosed with anti-mouse IgM FITC (Sigma; dilution of 1:100). Bacteria grown in CMP-Neu5Ac or in media alone were used as positive and negative controls for sialylation, respectively. A representative histogram is shown in the upper panel. […] B. Factor H (FH) binding to gonococci grown in CMP-KDN. Approximately 5×10^7 bacteria grown in media alone (no sialic acid), media plus CMP-Neu5Ac (20 μg/mL; positive control for FH binding) or in media containing CMP-KDN (20 μg/mL) were incubated with purified human FH (20 μg/mL) in HBSS** for 15 minutes at 37° C. and bound FH was detected with affinity isolated goat anti-human FH followed by anti-goat IgG FITC (Sigma; 1:100 dilution). A representative histogram is shown in the upper panel. […]

[2] = molecular target: T1, gonococcal LOS sialyltransferase (Lst) (Neisseria gonorrhoeae, UniProt P72074); experiment: mAb 3F11 binding by flow cytometry (incorporation of NulO on LNnT LOS by Lst); format: cell-based, N. gonorrhoeae F62 ΔlgtD; conditions: F62 ΔlgtD grown in media with 20 μg/mL CMP-NulO
T1 construct: CMP-KDN served as a substrate for gonococcal Lst in the context of live bacteria; endogenous in cells; host or cells: N. gonorrhoeae F62 ΔlgtD (live bacteria)
Procedure: FIG. 1: CMP-KDN serves as a substrate for gonococcal LOS and incorporation of KDN on gonococcal lacto-N-neotetraose LOS enhances factor H (FH) binding. A. Incorporation of KDN by gonococci. Gonococcal strain F62 ΔlgtD (expresses lacto-N-neotetraose (LNnT) from Hepl) was grown in media containing CMP-KDN (20 μg/mL) and binding of mAb 3F11 was measured by flow cytometry. mAb 3F11 binds only to […] LNnT; substitution of the terminal Gal of LNnT, for example with a NulO, will decrease mAb 3F11 binding. Approximately 5×10^7 bacteria were incubated with mAb 3F11 tissue culture supernatants for 15 minutes at 37° C. Binding of mAb 3F11 was disclosed with anti-mouse IgM FITC (Sigma; dilution of 1:100). Bacteria grown in CMP-Neu5Ac or in media alone were used as positive and negative controls for sialylation, respectively. A representative histogram is shown in the upper panel. […] B. Factor H (FH) binding to gonococci grown in CMP-KDN. Approximately 5×10^7 bacteria grown in media alone (no sialic acid), media plus CMP-Neu5Ac (20 μg/mL; positive control for FH binding) or in media containing CMP-KDN (20 μg/mL) were incubated with purified human FH (20 μg/mL) in HBSS** for 15 minutes at 37° C. and bound FH was detected with affinity isolated goat anti-human FH followed by anti-goat IgG FITC (Sigma; 1:100 dilution). A representative histogram is shown in the upper panel.
FIG. 3: CMP-KDN7N3 serves as a substrate for gonococcal Lst resulting in incorporation of KDN7N3 on gonococcal lacto-N-neotetraose (LNnT) LOS—Incorporation of KDN7N3 by gonococci. Gonococcal strain F62ΔlgtD (expresses lacto-N-neotetraose (LNnT) from Hepl) was grown in media containing CMP-KDN7N3 (20 μg/mL) and binding of mAb 3F11 was measured by flow cytometry. mAb 3F11 binds only to […] LNnT; substitution of the terminal Gal of LNnT, for example with a NulO, will decrease mAb 3F11 binding. Approximately 5×10^7 bacteria were incubated with mAb 3F11 tissue culture supernatants for 15 minutes at 37° C. Binding of mAb 3F11 was disclosed with anti-mouse IgM FITC (Sigma; dilution of 1:100). […]

T1 sequence (P72074 whole entry): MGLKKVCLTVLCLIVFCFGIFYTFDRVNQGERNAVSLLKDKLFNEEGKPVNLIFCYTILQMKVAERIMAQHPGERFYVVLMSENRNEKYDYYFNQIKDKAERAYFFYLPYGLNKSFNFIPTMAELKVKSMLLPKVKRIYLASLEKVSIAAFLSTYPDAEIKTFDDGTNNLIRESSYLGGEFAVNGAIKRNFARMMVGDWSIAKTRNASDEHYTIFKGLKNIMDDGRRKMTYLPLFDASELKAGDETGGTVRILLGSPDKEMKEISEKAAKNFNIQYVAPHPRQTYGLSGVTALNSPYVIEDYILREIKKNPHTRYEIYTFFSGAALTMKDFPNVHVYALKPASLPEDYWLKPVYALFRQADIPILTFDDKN

Nc1ccn([C@@H]2O[C@H](COP(=O)(O)O[C@@]3(C(=O)O)CC(O)[C@@H](O)C([C@H](O)[C@H](O)CO)O3)C(O)C2O)c(=O)n1 (stereo partly drawn) [CMP-KDN, cytidine 5′-monophospho-3-deoxy-D-glycero-D-galacto-nonulosonic acid]
fH binding to bacteria [1]: half of that observed for Neu5Ac
binding of mAb 3F11 (use as substrate by gonococcal Lst) [2]: decreased binding of mAb 3F11 similarly

Source: patent US20210401863A1, “TREATMENT AND PREVENTION OF NEISSERIA GONORRHOEAE INFECTION USING CMP-ACTIVATED NONULOSONATE ANALOG COMPOUNDS” (NATIONAL RESEARCH COUNCIL OF CANADA, priority 2015, published 2021)
